Assay results from ChEMBL document CHEMBL4229522, “Inhibition of the LOX enzyme family members with old and new ligands. Selectivity analysis revisited” (Bioorg Med Chem Lett, 2018).

Tests used:
Lysyl oxidase homolog 3 = target: T1, Lysyl oxidase homolog 3 (Homo sapiens, UniProt P58215); test: Inhibition of recombinant human LOXL3 expressed in CHO cells using diaminopentane as substrate preincubated for 30 mins followed by substrate addition measured after 1 hr by fluorimetric method
T1 sequence (P58215 whole entry): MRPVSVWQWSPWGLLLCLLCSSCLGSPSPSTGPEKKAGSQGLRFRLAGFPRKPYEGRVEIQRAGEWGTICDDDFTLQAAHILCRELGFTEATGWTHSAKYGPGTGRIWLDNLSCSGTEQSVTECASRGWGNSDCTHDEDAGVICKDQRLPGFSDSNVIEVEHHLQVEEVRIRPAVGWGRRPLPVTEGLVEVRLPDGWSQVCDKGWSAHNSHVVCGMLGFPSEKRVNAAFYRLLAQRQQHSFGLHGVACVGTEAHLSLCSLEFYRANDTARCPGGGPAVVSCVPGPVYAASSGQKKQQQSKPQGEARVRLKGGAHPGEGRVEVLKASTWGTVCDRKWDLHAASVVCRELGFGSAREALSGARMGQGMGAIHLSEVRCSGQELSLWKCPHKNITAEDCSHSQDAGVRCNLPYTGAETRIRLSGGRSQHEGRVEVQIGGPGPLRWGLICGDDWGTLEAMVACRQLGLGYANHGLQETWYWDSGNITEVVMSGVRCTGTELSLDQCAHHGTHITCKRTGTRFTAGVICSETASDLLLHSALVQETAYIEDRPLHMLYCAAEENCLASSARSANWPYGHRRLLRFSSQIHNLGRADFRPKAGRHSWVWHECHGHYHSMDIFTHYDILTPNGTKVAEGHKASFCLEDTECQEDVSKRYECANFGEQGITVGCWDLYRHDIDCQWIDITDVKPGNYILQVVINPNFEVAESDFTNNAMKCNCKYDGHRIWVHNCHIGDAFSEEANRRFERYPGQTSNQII

[1] = target: T2, Lysyl oxidase homolog 2 (Homo sapiens) (UniProt Q9Y4K0); test: Inhibition of recombinant LOXL2 (unknown origin) expressed in NS0 cells at 10 uM using diaminopentane as substrate preincubated for 30 mins followed by substrate addition measured after 1 hr by fluorimetric method relative to control
T2 sequence (whole entry): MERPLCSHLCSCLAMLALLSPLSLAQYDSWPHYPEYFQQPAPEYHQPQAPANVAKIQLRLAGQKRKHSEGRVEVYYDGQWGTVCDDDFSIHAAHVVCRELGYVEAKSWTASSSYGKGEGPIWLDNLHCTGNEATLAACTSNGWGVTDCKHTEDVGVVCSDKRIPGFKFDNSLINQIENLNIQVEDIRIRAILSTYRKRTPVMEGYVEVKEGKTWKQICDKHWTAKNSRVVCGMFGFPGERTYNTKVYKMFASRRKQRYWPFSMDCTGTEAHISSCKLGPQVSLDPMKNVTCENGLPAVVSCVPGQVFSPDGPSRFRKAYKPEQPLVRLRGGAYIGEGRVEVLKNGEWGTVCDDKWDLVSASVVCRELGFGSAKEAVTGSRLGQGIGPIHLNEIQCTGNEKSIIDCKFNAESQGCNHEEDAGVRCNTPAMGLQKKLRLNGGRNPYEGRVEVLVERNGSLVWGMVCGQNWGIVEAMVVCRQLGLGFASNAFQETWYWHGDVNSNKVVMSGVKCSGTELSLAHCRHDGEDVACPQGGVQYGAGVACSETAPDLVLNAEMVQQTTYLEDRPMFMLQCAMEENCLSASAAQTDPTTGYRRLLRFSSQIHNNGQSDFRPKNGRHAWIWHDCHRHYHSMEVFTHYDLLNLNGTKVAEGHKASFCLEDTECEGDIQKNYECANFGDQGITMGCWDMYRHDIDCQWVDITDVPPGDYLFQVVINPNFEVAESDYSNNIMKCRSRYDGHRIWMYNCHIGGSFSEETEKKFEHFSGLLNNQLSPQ

Lysyl oxidase homolog 2 = target: T3, Lysyl oxidase homolog 2 (Homo sapiens, UniProt Q9Y4K0); test: Inhibition of recombinant LOXL2 (unknown origin) expressed in NS0 cells using diaminopentane as substrate preincubated for 30 mins followed by substrate addition measured after 1 hr by fluorimetric method
T3 sequence (Q9Y4K0 whole entry): T2 sequence (whole entry)

[2] = target: T4, Lysyl oxidase homolog 4 (Homo sapiens) (UniProt Q96JB6); test: Inhibition of recombinant human LOXL4 expressed in baculovirus infected insect cells at 10 uM using diaminopentane as substrate preincubated for 30 mins followed by substrate addition measured after 1 hr by fluorimetric method relative to control
T4 sequence (whole entry): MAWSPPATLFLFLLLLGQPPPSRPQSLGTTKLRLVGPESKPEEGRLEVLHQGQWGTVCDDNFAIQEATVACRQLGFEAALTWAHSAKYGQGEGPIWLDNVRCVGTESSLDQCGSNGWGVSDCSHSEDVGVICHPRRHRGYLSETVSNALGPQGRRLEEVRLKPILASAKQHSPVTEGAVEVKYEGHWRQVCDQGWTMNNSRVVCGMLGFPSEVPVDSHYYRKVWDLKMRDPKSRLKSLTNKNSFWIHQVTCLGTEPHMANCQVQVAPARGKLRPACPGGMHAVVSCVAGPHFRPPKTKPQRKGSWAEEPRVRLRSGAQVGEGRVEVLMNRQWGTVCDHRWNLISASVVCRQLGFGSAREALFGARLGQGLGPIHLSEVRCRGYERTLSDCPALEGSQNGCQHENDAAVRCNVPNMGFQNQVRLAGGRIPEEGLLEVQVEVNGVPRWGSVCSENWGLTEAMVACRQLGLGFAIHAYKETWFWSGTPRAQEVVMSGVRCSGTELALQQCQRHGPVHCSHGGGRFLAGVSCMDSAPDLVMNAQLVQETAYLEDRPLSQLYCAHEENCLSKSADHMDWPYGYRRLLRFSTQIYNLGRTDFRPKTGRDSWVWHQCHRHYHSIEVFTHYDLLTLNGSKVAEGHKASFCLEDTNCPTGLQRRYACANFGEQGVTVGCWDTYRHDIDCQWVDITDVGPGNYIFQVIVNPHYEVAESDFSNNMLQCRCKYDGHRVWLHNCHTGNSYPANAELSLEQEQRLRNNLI

Lysyl oxidase homolog 4 = target: T5, Lysyl oxidase homolog 4 (Homo sapiens, UniProt Q96JB6); test: Inhibition of recombinant human LOXL4 expressed in baculovirus infected insect cells using diaminopentane as substrate preincubated for 30 mins followed by substrate addition measured after 1 hr by fluorimetric method
T5 sequence (Q96JB6 whole entry): T4 sequence (whole entry)

Protein-lysine 6-oxidase = target: T6, Protein-lysine 6-oxidase (Homo sapiens, UniProt P28300); test: Inhibition of recombinant human LOX expressed in HEK293 cells using diaminopentane as substrate preincubated for 30 mins followed by substrate addition measured after 1 hr by fluorimetric method; format: cell-based
T6 sequence (P28300 whole entry): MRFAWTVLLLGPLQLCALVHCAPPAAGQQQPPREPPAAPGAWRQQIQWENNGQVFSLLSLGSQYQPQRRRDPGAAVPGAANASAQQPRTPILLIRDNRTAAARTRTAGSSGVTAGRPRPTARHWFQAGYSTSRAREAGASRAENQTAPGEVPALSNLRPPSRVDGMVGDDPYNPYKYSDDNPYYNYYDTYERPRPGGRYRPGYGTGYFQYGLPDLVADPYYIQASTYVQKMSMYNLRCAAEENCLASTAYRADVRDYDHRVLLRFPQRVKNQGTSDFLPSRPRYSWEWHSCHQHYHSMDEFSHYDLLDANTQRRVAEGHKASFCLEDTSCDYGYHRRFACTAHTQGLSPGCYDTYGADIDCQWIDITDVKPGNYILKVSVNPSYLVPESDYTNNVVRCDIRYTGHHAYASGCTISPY

SMILES | IC50 (Lysyl oxidase homolog 3) [µM] | inhibition [1] [%] | IC50 (Lysyl oxidase homolog 2) [µM] | inhibition [2] [%] | IC50 (Lysyl oxidase homolog 4) [µM] | IC50 (Protein-lysine 6-oxidase) [µM]
CCOC(=O)c1sc(N/N=C2\C(=O)N(c3ccccc3)N=C2N)c(C(=O)OCC)c1C | > 100 | < 40 | > 100 | < 40 | 3.3 | 
CCN(CC)C(=S)SSC(=S)N(CC)CC [DISULFIRAM] | 0.093 | < 40 | 0.15 | < 40 | 0.059 | 0.32
O=c1c2cccnc2[nH]c(=S)n1-c1ccccc1 | 18 | < 40 | 75 | < 40 | > 100 | > 100
CN(C)C(=S)SSC(=S)N(C)C [THIRAM] | 0.11 | < 40 | 0.17 | < 40 | 0.18 | 1.04
CCN1/C(=C2\C(=O)N(c3ccccc3)N=C2Nc2ccccc2)C=Cc2ccccc21 |  | < 40 | 1 | < 40 | > 100 | 
Cc1cc(C)c2c(=O)n(-c3ccccc3)[nH]c2n1 | > 100 | < 40 | 25 | < 40 | > 100 | 35
CC1=NN(c2ccccc2)C(=O)/C1=C/NNc1nnc(C)c(O)n1 |  | < 40 | 34 | < 40 | > 100 | 
[O-][n+]1ccccc1S [PYRITHIONE] | 12 | < 40 | 18 | < 40 | 15 | 33
Cc1cc(-c2ccc3c(=O)n(-c4ccccc4)[nH]c3n2)c(C)o1 |  | < 40 | 3.8 | < 40 | 55 | 
CC1=NN(c2ccccc2)C(=O)C1C (stereo not drawn) | 1.3 | < 40 | 2.1 | < 40 | 2.1 | 2.6
N#CCCN | 0.17 |  | 0.073 | < 40 | > 100 | > 100
CC(C)(C)C1=NN(c2ccccc2)C(=O)C1 | > 100 | < 40 | > 100 | < 40 | > 100 | 75
O=c1c2ccc(-c3cccs3)nc2[nH]n1-c1ccccc1 |  | < 40 | 7.8 | < 40 | > 100 | > 100
COc1ccccc1-c1cc(=O)c2c(=O)n(-c3ccccc3)[nH]c2[nH]1 |  | < 40 | 45 | < 40 | > 100 | 
